In patent US20160000750A1, “COMBINATION OF EGCG OR METHYLATED EGCG AND A PDE INHIBITOR” (KYUSHU UNIVERSITY, NATIONAL UNIVERSITY CORPORATION, priority 2010, published 2016):

Legend:
[1] = test system: Toll-like receptor (TLR) 2; assay: TLR2 expression in RAW 264.7 by Western blotting; type: cell-based, mouse; conditions: vardenafil 5 μM, EGCG 10 μM added after 3 hours, 24 hours, untreated = 100
Method: (§1) A mouse macrophage cell line, RAW 264.7, was seeded in a 5-mL dish at 1×10^5 cells/mL and was pre-cultured in a DMEM medium supplemented with 1% FCS for 24 hours. Subsequently, vardenafil was added thereto at a concentration of 5 μM. After 3 hours, EGCG was added thereto at a concentration of 0 μM or 10 μM. After 24 hours, the cells were collected, and the expressions of Toll-like receptor (TLR) 2 and TLR 4 were measured by Western blotting.

TLR 4 = assay: TLR4 expression in RAW 264.7 by Western blotting; type: cell-based, mouse; conditions: vardenafil 5 μM, EGCG 10 μM added after 3 hours, 24 hours, untreated = 100
Method: as §1

Structure (SMILES): CCCc1nc(C)c2c(=O)[nH]c(-c3cc(S(=O)(=O)N4CCN(CC)CC4)ccc3OCC)nn12 [vardenafil]
- TLR2 expression level(%) [1]: 112%
- TLR4 expression level(%) (TLR 4): 112%
